Assay results published in the supplement of paper PMC8612539.
Values after ≈ are worked out from the molar mass of the structure shown.

Tested on: Escherichia coli
Assay: minimum inhibitory concentration (MIC)
Experimental: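 Broth microdilution MIC (Sensititre BOPO7F bovine plate, CLSI methods) of 19 antimicrobials against field isolates of P. multocida, M. haemolytica, H. somni (deep nasopharyngeal swabs) and E. coli, Enterococcus spp. (rectal swabs) from weaned dairy heifers. Incubation 16-24 h at 35 C. MIC is the lowest concentration preventing visible growth. Values with <= or > lie at the tested range limits. Trimethoprim-sulfamethoxazole is given as the trimethoprim component of a 1:19 mixture.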

CCN1CCN(c2cc3c(cc2F)c(=O)c(C(=O)O)cn3C2CC2)CC1 [Enrofloxacin]
Settings	minimum inhibitory concentration [µg/mL]
isolate (source animal id): 8	≤ 0.12
isolate (source animal id): 9	> 2
isolate (source animal id): 10	≤ 0.12
isolate (source animal id): 11	≤ 0.12
isolate (source animal id): 12	> 2
isolate (source animal id): 13	≤ 0.12
isolate (source animal id): 14	0.5 (≈ 1.39 µM)
isolate (source animal id): 15	≤ 0.12
isolate (source animal id): 16	≤ 0.12
isolate (source animal id): 98	≤ 0.12
isolate (source animal id): 99	≤ 0.12
isolate (source animal id): 100	≤ 0.12
isolate (source animal id): 101	≤ 0.12
isolate (source animal id): 102	≤ 0.12
isolate (source animal id): 103	≤ 0.12
isolate (source animal id): 104	≤ 0.12
isolate (source animal id): 105	≤ 0.12
isolate (source animal id): 106	> 2
isolate (source animal id): 107	≤ 0.12
isolate (source animal id): 108	≤ 0.12
isolate (source animal id): 109	≤ 0.12
isolate (source animal id): 110	≤ 0.12
isolate (source animal id): 111	> 2
isolate (source animal id): 112	≤ 0.12
isolate (source animal id): 113	1 (≈ 2.78 µM)
isolate (source animal id): 114	≤ 0.12
isolate (source animal id): 115	1 (≈ 2.78 µM)
isolate (source animal id): 116	1 (≈ 2.78 µM)
isolate (source animal id): 117	≤ 0.12
isolate (source animal id): 118	0.5 (≈ 1.39 µM)
isolate (source animal id): 119	> 2
isolate (source animal id): 120	1 (≈ 2.78 µM)
isolate (source animal id): 121	≤ 0.12
isolate (source animal id): 122	≤ 0.12
isolate (source animal id): 123	≤ 0.12
isolate (source animal id): 124	> 2
isolate (source animal id): 125	≤ 0.12
isolate (source animal id): 126	> 2
isolate (source animal id): 127	≤ 0.12
isolate (source animal id): 128	≤ 0.12
isolate (source animal id): 129	1 (≈ 2.78 µM)
isolate (source animal id): 130	≤ 0.12
isolate (source animal id): 131	2 (≈ 5.56 µM)
isolate (source animal id): 132	0.5 (≈ 1.39 µM)
isolate (source animal id): 133	≤ 0.12
isolate (source animal id): 134	≤ 0.12
isolate (source animal id): 135	≤ 0.12
isolate (source animal id): 136	≤ 0.12
isolate (source animal id): 137	0.5 (≈ 1.39 µM)
isolate (source animal id): 138	> 2
isolate (source animal id): 139	0.25 (≈ 0.696 µM)
isolate (source animal id): 140	≤ 0.12
isolate (source animal id): 141	≤ 0.12
isolate (source animal id): 142	≤ 0.12
isolate (source animal id): 143	1 (≈ 2.78 µM)
isolate (source animal id): 144	> 2
isolate (source animal id): 145	≤ 0.12
isolate (source animal id): 146	0.5 (≈ 1.39 µM)
isolate (source animal id): 147	> 2
isolate (source animal id): 148	0.25 (≈ 0.696 µM)
isolate (source animal id): 149	≤ 0.12
isolate (source animal id): 150	≤ 0.12
isolate (source animal id): 151	≤ 0.12
isolate (source animal id): 152	≤ 0.12
isolate (source animal id): 153	≤ 0.12
isolate (source animal id): 154	0.5 (≈ 1.39 µM)
isolate (source animal id): 155	≤ 0.12
isolate (source animal id): 156	1 (≈ 2.78 µM)
isolate (source animal id): 157	≤ 0.12
isolate (source animal id): 158	≤ 0.12
isolate (source animal id): 159	≤ 0.12
isolate (source animal id): 160	≤ 0.12
isolate (source animal id): 161	≤ 0.12
isolate (source animal id): 162	> 2
isolate (source animal id): 163	≤ 0.12
isolate (source animal id): 164	≤ 0.12
isolate (source animal id): 165	≤ 0.12
isolate (source animal id): 166	≤ 0.12
isolate (source animal id): 167	≤ 0.12
isolate (source animal id): 168	≤ 0.12
isolate (source animal id): 169	≤ 0.12
isolate (source animal id): 170	≤ 0.12
isolate (source animal id): 171	≤ 0.12
isolate (source animal id): 172	≤ 0.12
isolate (source animal id): 173	≤ 0.12
isolate (source animal id): 174	≤ 0.12
isolate (source animal id): 175	≤ 0.12
isolate (source animal id): 176	≤ 0.12
isolate (source animal id): 177	≤ 0.12
isolate (source animal id): 178	≤ 0.12
isolate (source animal id): 179	≤ 0.12
isolate (source animal id): 180	≤ 0.12
isolate (source animal id): 181	≤ 0.12
isolate (source animal id): 182	≤ 0.12
isolate (source animal id): 183	≤ 0.12
isolate (source animal id): 184	≤ 0.12
isolate (source animal id): 185	≤ 0.12
isolate (source animal id): 186	≤ 0.12
isolate (source animal id): 187	≤ 0.12
isolate (source animal id): 188	2 (≈ 5.56 µM)

CS(=O)(=O)c1ccc([C@@H](O)[C@@H](CF)NC(=O)C(Cl)Cl)cc1 [Florfenicol]
Settings	minimum inhibitory concentration [µg/mL]
isolate (source animal id): 8	4 (≈ 11.2 µM)
isolate (source animal id): 9	> 8
isolate (source animal id): 10	4 (≈ 11.2 µM)
isolate (source animal id): 11	2 (≈ 5.58 µM)
isolate (source animal id): 12	> 8
isolate (source animal id): 13	8 (≈ 22.3 µM)
isolate (source animal id): 14	> 8
isolate (source animal id): 15	> 8
isolate (source animal id): 16	> 8
isolate (source animal id): 98	2 (≈ 5.58 µM)
isolate (source animal id): 99	4 (≈ 11.2 µM)
isolate (source animal id): 100	> 8
isolate (source animal id): 101	> 8
isolate (source animal id): 102	> 8
isolate (source animal id): 103	4 (≈ 11.2 µM)
isolate (source animal id): 104	> 8
isolate (source animal id): 105	> 8
isolate (source animal id): 106	> 8
isolate (source animal id): 107	> 8
isolate (source animal id): 108	> 8
isolate (source animal id): 109	> 8
isolate (source animal id): 110	> 8
isolate (source animal id): 111	4 (≈ 11.2 µM)
isolate (source animal id): 112	> 8
isolate (source animal id): 113	> 8
isolate (source animal id): 114	4 (≈ 11.2 µM)
isolate (source animal id): 115	> 8
isolate (source animal id): 116	> 8
isolate (source animal id): 117	> 8
isolate (source animal id): 118	> 8
isolate (source animal id): 119	> 8
isolate (source animal id): 120	> 8
isolate (source animal id): 121	> 8
isolate (source animal id): 122	> 8
isolate (source animal id): 123	> 8
isolate (source animal id): 124	> 8
isolate (source animal id): 125	> 8
isolate (source animal id): 126	> 8
isolate (source animal id): 127	> 8
isolate (source animal id): 128	> 8
isolate (source animal id): 129	> 8
isolate (source animal id): 130	> 8
isolate (source animal id): 131	> 8
isolate (source animal id): 132	> 8
isolate (source animal id): 133	> 8
isolate (source animal id): 134	> 8
isolate (source animal id): 135	8 (≈ 22.3 µM)
isolate (source animal id): 136	> 8
isolate (source animal id): 137	> 8
isolate (source animal id): 138	> 8
isolate (source animal id): 139	> 8
isolate (source animal id): 140	4 (≈ 11.2 µM)
isolate (source animal id): 141	> 8
isolate (source animal id): 142	> 8
isolate (source animal id): 143	> 8
isolate (source animal id): 144	> 8
isolate (source animal id): 145	> 8
isolate (source animal id): 146	> 8
isolate (source animal id): 147	> 8
isolate (source animal id): 148	> 8
isolate (source animal id): 149	4 (≈ 11.2 µM)
isolate (source animal id): 150	> 8
isolate (source animal id): 151	> 8
isolate (source animal id): 152	> 8
isolate (source animal id): 153	> 8
isolate (source animal id): 154	> 8
isolate (source animal id): 155	> 8
isolate (source animal id): 156	> 8
isolate (source animal id): 157	> 8
isolate (source animal id): 158	> 8
isolate (source animal id): 159	> 8
isolate (source animal id): 160	> 8
isolate (source animal id): 161	> 8
isolate (source animal id): 162	> 8
isolate (source animal id): 163	> 8
isolate (source animal id): 164	> 8
isolate (source animal id): 165	> 8
isolate (source animal id): 166	> 8
isolate (source animal id): 167	8 (≈ 22.3 µM)
isolate (source animal id): 168	2 (≈ 5.58 µM)
isolate (source animal id): 169	8 (≈ 22.3 µM)
isolate (source animal id): 170	4 (≈ 11.2 µM)
isolate (source animal id): 171	4 (≈ 11.2 µM)
isolate (source animal id): 172	2 (≈ 5.58 µM)
isolate (source animal id): 173	> 8
isolate (source animal id): 174	4 (≈ 11.2 µM)
isolate (source animal id): 175	8 (≈ 22.3 µM)
isolate (source animal id): 176	4 (≈ 11.2 µM)
isolate (source animal id): 177	> 8
isolate (source animal id): 178	> 8
isolate (source animal id): 179	4 (≈ 11.2 µM)
isolate (source animal id): 180	4 (≈ 11.2 µM)
isolate (source animal id): 181	> 8
isolate (source animal id): 182	4 (≈ 11.2 µM)
isolate (source animal id): 183	> 8
isolate (source animal id): 184	4 (≈ 11.2 µM)
isolate (source animal id): 185	> 8
isolate (source animal id): 186	4 (≈ 11.2 µM)
isolate (source animal id): 187	> 8
isolate (source animal id): 188	> 8
